Reference: US7316900B2, “Methylated nucleotide regulation of gene expression” (Quebepharma Recherche, Inc., priority 2000, dated 2008)

System: uPA mRNA
Experiment: Northern blot of uPA mRNA in MCF-7 cells treated with demethylating agent (Example 6)
Type: cell-based, human
Details: 25 uM, ten days, vs vehicle alone
Method: Human breast cancer cells MCF-7 were maintained in culture and at 65% confluent cells were treated with vehicle alone (MCF-7) or 25 uM of the demethylating agent 5 azc (MCF-7+5azc) for ten days. MDA-231 cells were used as positive control (MDA-231) for uPA expression. At the end of this period 20 μg of cellular RNA from each group were electophoresed on a 1.1% agarose/formaldehyde gel and […] a ^32p labeled 18 S RNA probe. All blots (FIG. 1A) were quantified by densitometric scanning (FIG. 1B). Significant difference from control cells is represented by an asterisk (p<0.05).

Nc1ncn([C@@H]2O[C@H](CO)[C@@H](O)[C@H]2O)c(=O)n1 [5-azc]
uPA mRNA (Northern blot, densitometric scanning): marked induction
